Experimental data taken from US12411128B2, “Methods and apparatuses for prediction of mechanism of activity of compounds” (The Regents of the University of California, priority 2017, dated 2025).

Assays:
[1] = tested on: human ventricular cardiac tissue strips (hvCTS); experiment: binary SVM cardioactivity index from hvCTS twitch force readouts; format: cell-based; conditions: for cardioactivity versus vehicle-treated hvCTS by binary SVM accuracy: over tested concentration range, Student's t-test with Bonferroni correction
Method: The binary SVM is capable of summarizing all parameters and providing a simple metric that expresses a compound's degree of cardioactivity at a given dosage (Lee et al., 2015). […] As a result, a SVM accuracy metric is calculated to reflect the machine's ability to identify a cardioactive effect (e.g. 75% accuracy means that out of 100 data points, the machine could correctly classify 75 of them). To account for variations within the data set, multiple runs are performed to calculate the mean SVM accuracy. […] Prominent cardioactive effects allow the space between the data from treated and control conditions to become more distinguishable, leading to a higher SVM accuracy with 100% being the maximum.
Although the hvCTSs (FIG. 3, A) were examined under temperature-controlled conditions, there was an observable drift in contractile behavior of the vehicle-treated hvCTSs. For example, the relative measured maximum developed force increased for all pacing frequencies by a cumulative average of 16.96±0.83% upon the ninth serial addition (FIG. 3, B). To account and normalize for baseline drift, each drug condition was compared to its respective vehicle condition via binary SVM (e.g., measurements of the 7th serial drug addition were compared to those of vehicle-treated hvCTSs at the 7th serial addition). To establish a benchmark of non-cardioactivity, a subset of the vehicle-treated hvCTSs were randomly selected to model a non-cardioactive compound. Binary SVM was then performed between the subset and a corresponding control group of equal size (n).
Human ventricular cardiomyocytes were differentiated from a hES2 stem cell line with a Wnt inhibitor-based protocol as previously described (Weng et al., 2014). Human ventricular cardiac tissue strips (hvCTS) were then formed by mixing cardiomyocytes (100 k cells per strip) at 14-16 days post differentiation with a solution of bovine collagen I (2 mg/mL), Matrigel (0.9 mg/mL), and human foreskin fibroblasts (100 k cells per strip) as previously described (Turnbull et al., 2014). The cell-matrix solution (100 uL per tissue strip) was injected into a custom PDMS force-sensing bioreactor device and placed in an incubator (37° C. and 5% CO2). Formed hvCTSs were fed DMEM with 10% new born calf serum, 1% penicillin-streptomycin and 0.1% amphotericin B. The PDMS device contains two flexible vertical end-posts to which the tissue anchors, causing the posts to deflect as the tissue beats. Contractile force measurements were captured with a high speed (100 fps) CCD camera while custom LabVIEW software tracked the centroid movement of the flexible post tips. Force was converted from the deflection of the PDMS posts by an elastic beam bending equation (Serrao et al., 2012). […]

[2] = tested on: human ventricular cardiac tissue strips (hvCTS); experiment: class relationship metrics: binary SVM with Gaussian fit between 'unknown' and library compound; format: cell-based; conditions: for Estimated Similar Concentration of digoxin: ouabain at 1.0 × 10^−5 M
Method: Once the drug classes were predicted, the concentrations of library compounds that induced the most similar cardioactive effects as the ‘unknown’ compounds were computed (FIG. 7; protocol in Example 5).
The concentration of a library compound that induced the most similar cardioactive effects as the compound of interest was determined. This class relationship metric was computed by first selecting the compound of interest at a desired concentration and performing a series of binary SVM among the tested range of a library compound. For each concentration of the library compound, the closer the SVM accuracy was to 50%, the more defined boundaries of the compounds overlapped and the more similar the cardioactive effects were. This relationship between SVM accuracy and tested concentration range was presumed to behave in a Gaussian manner with the centroid representing the concentration that would elicit the most similar effects. The Gaussian fit was set with 50% as the lower limit and the highest achieved SVM accuracy as the upper limit. If the original SVM accuracies reached the 50% mark and remained around this value for subsequent concentrations, only the first concentration to reach the 50% was included in the fit to accurately model one side of the Gaussian curve.

[3] = tested on: human ventricular cardiac tissue strips (hvCTS); experiment: individual contractile force parameters of electrically paced hvCTS; conditions: for change of duration of relaxation phase / change of max force: increasing concentration up to 10^−4 M (100 μM)
Text: Each of the compounds, with the exception of aspirin, belonged to one of five classes with each class comprising a minimum of two compounds. Aspirin functioned as a reference for a cardiac-neutral compound. […] The parameters include: • 1. Desired pacing frequency. • 2. Captured pacing frequency. • 3. Max force generated (amplitude). • 4. […] Max change of force over time ([…]F/[…]t) of contraction phase. • 9. Max change of force over time ([…]F/[…]t) of relaxation phase. • 10. Duration of rise from 50% cutoff to max force. • 11. Duration of decline from max force to 50% cutoff. • 12. Area under the curve of rise from 50% cutoff to max force. • 13. Area under the curve of decline from max force to 50% cutoff. • 14. […] Area under the curve of rise from 50% cutoff to max force. • 17. Area under the curve of decline from max force to 50% cutoff.
The cell-matrix solution (100 uL per tissue strip) was injected into a custom PDMS force-sensing bioreactor device and placed in an incubator (37° C. and 5% CO2). Formed hvCTSs were fed DMEM with 10% new born calf serum, 1% penicillin-streptomycin and 0.1% amphotericin B. The PDMS device contains two flexible vertical end-posts to which the tissue anchors, causing the posts to deflect as the tissue beats. Contractile force measurements were captured with a high speed (100 fps) CCD camera while custom LabVIEW software tracked the centroid movement of the flexible post tips. […] A custom MATLAB script was used to calculate 17 parameters that described the overall shape of the force traces for each contractile event (FIG. 1). Each contraction was regarded as an individual data point for the machine learning analysis.
After 7-8 days post tissue formation, hvCTS were exposed to drugs for pharmacodynamic analysis. Flecainide, lisinopril, norepinephrine and ramipril were provided by Pfizer, while all other compounds were purchased form Sigma-Aldrich. Compounds were initially resuspended in DMSO and subsequently diluted in water for final concentrations composed of less than 0.1% (vol/vol) DMSO. The PDMS device containing the hvCTS was placed onto a heated stage (37° C.) under a dissecting microscope. Before either vehicle or drug addition, the media was replaced with DMEM containing high glucose (4.5 g/L) and HEPES without phenol red. Drug doses were added to a tissue in consecutively increasing manner up to 10 concentrations with 3 minutes in between measurements. Vehicle doses containing only water were applied similarly. A pulse stimulator (AMPI Master-9) connected to platinum wires electrically paced the hvCTS with a monophasic electric field of 5 V/cm with a 10 ms pulse duration.
SVM accuracies of strips exposed to a drug condition were compared to those of the non-cardioactive benchmark by using Student's t-test (desired a value of 0.05) with a Bonferroni correction (m, number of tests or hypotheses, was dependent on the number of drug additions in a screen). […] The Bonferroni correction was also applied when examining changes in specific parameters.

In the case of `CC(=O)Oc1ccccc1C(=O)O` [Aspirin], the “SVM accuracy, average among all serial additions” value ([1]; binary SVM vs vehicle-treated hvCTS, 10 nM to 100 μM, n=6) is reported as 52.85±1.77% and the “cardioactivity versus vehicle-treated hvCTS by binary SVM accuracy” value [1] is reported as “non-cardioactivity”.
For `COc1cc(N)c(Cl)cc1C(=O)NC1CCN(CCCOc2ccc(F)cc2)CC1OC` (stereo not shown) [Cisapride], the “Estimated Similar Concentration of flecainide” value ([2]; cisapride at 1.0 × 10^−4 M, centroid of Gaussian fit) was “Flecainide (1.03 × 10^−5) M”, the “change of duration of relaxation phase” value ([3]; paced at 0.5 Hz) was “increased” and the “change of max force” value ([3]; paced at 0.5 Hz) was “decreased”.
For `C[C@H]1O[C@@H](O[C@H]2[C@@H](O)C[C@H](O[C@H]3[C@@H](O)C[C@H](O[C@H]4CC[C@@]5(C)[C@H](CC[C@@H]6[C@@H]5C[C@@H](O)[C@]5(C)[C@@H](C7=CC(=O)OC7)CC[C@]65O)C4)O[C@@H]3C)O[C@@H]2C)C[C@H](O)[C@@H]1O` [Digoxin], the “change of duration of relaxation phase” value ([3]; paced at 0.5 Hz) was “increase in duration of relaxation phase” and the “change of max force” value ([3]; paced at 0.5 Hz) was “decrease in max force”.
With `CC(C)NCC(O)c1ccc(O)c(O)c1` (stereo not shown) [Isoproterenol] the “decrease of duration of the relaxation phase (time from maximum developed force to 95% cutoff)” value ([3]; 10 μM) was 22.19±19.35%, the “increase in maximum developed force” value ([3]; 10 μM, paced at 0.5 Hz) was 10.42±16.23% and the “duration of the relaxation phase versus the vehicle study (lusitropic effect)” value ([3]; paced at 0.5 Hz, 3.0×10^−7 to 10^−5 M, n=10) was “decreased significantly”. The inotropic effect ([3]; paced hvCTS (nifedipine 1 Hz; isoproterenol 10 μM, 0.5 Hz)) was “negligible inotropic effects”.
In the case of `NCCCC[C@H](N[C@@H](CCc1ccccc1)C(=O)O)C(=O)N1CCC[C@H]1C(=O)O` [Lisinopril], the “cardioactivity versus vehicle-treated hvCTS by binary SVM accuracy” value [1] is reported as “did not have detectable cardioactive effects”.
For `COCC(=O)O[C@]1(CCN(C)CCCc2nc3ccccc3[nH]2)CCc2cc(F)ccc2[C@@H]1C(C)C` [Mibefradil], the “Estimated Similar Concentration of nifedipine” value ([2]; mibefradil at 3.0 × 10^−6 M, centroid of Gaussian fit) was “Nifedipine (1.28 × 10^−7) M”.
In the case of `NC[C@H](O)c1ccc(O)c(O)c1` [Norepinephrine], the “Estimated Similar Concentration of isoproterenol” value ([2]; norepinephrine at 1.0 × 10^−5 M, centroid of Gaussian fit) is reported as “(1.44 × 10^−6) M”.
With `C[C@@H]1O[C@@H](O[C@H]2C[C@@H](O)[C@]3(CO)[C@H]4[C@H](O)C[C@]5(C)[C@@H](C6=CC(=O)OC6)CC[C@]5(O)[C@@H]4CC[C@]3(O)C2)[C@H](O)[C@H](O)[C@H]1O` [Ouabain] the “fold lower concentration than digoxin to achieve the same level of cardioactivity” value ([2]; ouabain 1.0×10^−5 M vs digoxin 5.35×10^−5 M) was “approximately 5 fold”, the “Estimated Similar Concentration of digoxin” value ([2]; centroid of Gaussian fit) was “Digoxin (5.35 × 10^−5) M” and the “Estimated Similar Concentration of digoxin” value ([2]; centroid of Gaussian fit, listed as ouabain) was 53.5 µM. For the same molecule, the “treated strips that stopped beating at all pacing frequencies” value ([3]; 100 μM) was 4 of the 10.
In the case of `CCOC(=O)[C@H](CCc1ccccc1)N[C@@H](C)C(=O)N1[C@H](C(=O)O)C[C@@H]2CCC[C@@H]21` [Ramipril], the “cardioactivity versus vehicle-treated hvCTS by binary SVM accuracy” value [1] is reported as “did not have detectable cardioactive effects”.
